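Interpolation was linear, between the two tested concentrations surrounding the appropriate level; five concentrations were tested over 48 hours in 96-well plates. GI50 marks 50% less growth.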 The source made the active and inactive calls. No stated cut-off is given here; in the data, active = GI50 up to about 1.1 µM and inactive = higher.
Columns and labels:
Test in all cases: growth of human tumour cells (NCI), 48 h
OVCAR-3 = tested on: OVCAR-3
HCT-15 = tested on: HCT-15
U-251 = tested on: U-251
TK-10 = tested on: TK-10
CCRF-CEM = tested on: CCRF-CEM
IGROV-1 = tested on: IGROV-1
OVCAR-8 = tested on: OVCAR-8
RPMI-8226 = tested on: RPMI-8226
NCI-H460 = tested on: NCI-H460
OVCAR-4 = tested on: OVCAR-4
LOX IMVI = tested on: LOX IMVI
A549 = tested on: A549
Malme-3M = tested on: Malme-3M
SW-620 = tested on: SW-620
T47D = tested on: T47D
HCT-116 = tested on: HCT-116
M14 = tested on: M14
HOP-62 = tested on: HOP-62
SNB-19 = tested on: SNB-19
SNB-75 = tested on: SNB-75
NCI-H226 = tested on: NCI-H226
SN12C = tested on: SN12C
KM12 = tested on: KM12
SF-295 = tested on: SF-295
UACC-62 = tested on: UACC-62
HL-60 = tested on: HL-60
UO-31 = tested on: UO-31
MCF7 = tested on: MCF7
SF-539 = tested on: SF-539
A498 = tested on: A498
K562 = tested on: K562
NCI-H522 = tested on: NCI-H522
PC-3 = tested on: PC-3
HOP-92 = tested on: HOP-92
UACC-257 = tested on: UACC-257
DU-145 = tested on: DU-145
SK-MEL-2 = tested on: SK-MEL-2
NCI/ADR-RES = tested on: NCI/ADR-RES
EKVX = tested on: EKVX
RXF 393 = tested on: RXF 393
HCC 2998 = tested on: HCC 2998
MDA-MB-231 = tested on: MDA-MB-231
CAKI-1 = tested on: CAKI-1
Hs-578T = tested on: Hs-578T
SK-MEL-28 = tested on: SK-MEL-28
SK-MEL-5 = tested on: SK-MEL-5
HT-29 = tested on: HT-29
ACHN = tested on: ACHN
MDA-N = tested on: MDA-N
OVCAR-5 = tested on: OVCAR-5
SK-OV-3 = tested on: SK-OV-3
COLO 205 = tested on: COLO 205
MOLT-4 = tested on: MOLT-4
MDA-MB-435 = tested on: MDA-MB-435
SR = tested on: SR
SF-268 = tested on: SF-268
786-0 = tested on: 786-0
BT-549 = tested on: BT-549
NCI-H23 = tested on: NCI-H23

With `NCCN(CCN)/[N+]([O-])=N/O` the GI50 (OVCAR-3) was > 100 µM (inactive), the GI50 (HCT-15) was greater than 100 µM and the GI50 (U-251) was > 100 µM (inactive). For the same compound, the GI50 (TK-10) was > 100 µM (inactive), the GI50 (CCRF-CEM) was 43.6 µM (inactive) and the GI50 (IGROV-1) was > 100 µM (inactive). The GI50 (OVCAR-8) was > 100 µM (inactive), the GI50 (RPMI-8226) was > 100 µM (inactive) and the GI50 (NCI-H460) was 69.3 µM (inactive). The GI50 (OVCAR-4) was > 100 µM (inactive), the GI50 (LOX IMVI) was > 100 µM (inactive) and the GI50 (A549) was > 100 µM (inactive). For the same compound, the GI50 (Malme-3M) was > 100 µM (inactive), the GI50 (SW-620) was > 100 µM (inactive) and the GI50 (T47D) was > 100 µM (inactive). For the same compound, the GI50 (HCT-116) was > 100 µM (inactive), the GI50 (M14) was 72.8 µM (inactive) and the GI50 (HOP-62) was > 100 µM (inactive). The GI50 (SNB-19) was > 100 µM (inactive), the GI50 (SNB-75) was > 100 µM (inactive) and the GI50 (NCI-H226) was > 100 µM (inactive). For the same compound, the GI50 (SN12C) was > 100 µM (inactive), the GI50 (KM12) was > 100 µM (inactive) and the GI50 (SF-295) was > 100 µM (inactive). For the same compound, the GI50 (UACC-62) was > 100 µM (inactive), the GI50 (HL-60) was > 100 µM (inactive) and the GI50 (UO-31) was > 100 µM (inactive). For the same compound, the GI50 (MCF7) was 47.4 µM (inactive), the GI50 (SF-539) was > 100 µM (inactive) and the GI50 (A498) was > 100 µM (inactive). For the same compound, the GI50 (K562) was 50.5 µM (inactive), the GI50 (NCI-H522) was 93.3 µM (inactive) and the GI50 (PC-3) was > 100 µM (inactive). The GI50 (HOP-92) was > 100 µM (inactive), the GI50 (UACC-257) was > 100 µM (inactive) and the GI50 (DU-145) was > 100 µM (inactive). The GI50 (SK-MEL-2) was > 100 µM (inactive), the GI50 (NCI/ADR-RES) was 82.8 µM (inactive) and the GI50 (EKVX) was > 100 µM (inactive). The GI50 (RXF 393) was > 100 µM (inactive), the GI50 (HCC 2998) was > 100 µM (inactive) and the GI50 (MDA-MB-231) was > 100 µM (inactive). For the same compound, the GI50 (CAKI-1) was > 100 µM (inactive), the GI50 (Hs-578T) was > 100 µM (inactive) and the GI50 (SK-MEL-28) was > 100 µM (inactive). For the same compound, the GI50 (SK-MEL-5) was > 100 µM (inactive), the GI50 (HT-29) was > 100 µM (inactive) and the GI50 (ACHN) was > 100 µM (inactive). For the same compound, the GI50 (MDA-N) was > 100 µM (inactive), the GI50 (OVCAR-5) was > 100 µM (inactive) and the GI50 (SK-OV-3) was > 100 µM (inactive). The GI50 (COLO 205) was > 100 µM (inactive), the GI50 (MOLT-4) was > 100 µM (inactive) and the GI50 (MDA-MB-435) was > 100 µM (inactive). The GI50 (SR) was 91.2 µM (inactive), the GI50 (SF-268) was > 100 µM (inactive) and the GI50 (786-0) was > 100 µM (inactive). For the same compound, the GI50 (BT-549) was > 100 µM (inactive) and the GI50 (NCI-H23) was > 100 µM (inactive).
With `C=C=C(CC1CCCCC1=O)S(=O)(=O)c1ccccc1` (configuration not stated) the GI50 (OVCAR-3) was > 10 µM (inactive), the GI50 (HCT-15) was 4.52 µM and the GI50 (U-251) was > 10 µM (inactive). The GI50 (TK-10) was > 10 µM (inactive), the GI50 (CCRF-CEM) was 2.16 µM (inactive) and the GI50 (IGROV-1) was > 10 µM (inactive). For the same compound, the GI50 (OVCAR-8) was > 9.46 µM (inactive), the GI50 (RPMI-8226) was 1.04 µM (active) and the GI50 (NCI-H460) was > 10 µM (inactive). The GI50 (OVCAR-4) was > 10 µM (inactive), the GI50 (LOX IMVI) was > 4.78 µM (inactive) and the GI50 (A549) was > 10 µM (inactive). For the same compound, the GI50 (Malme-3M) was > 10 µM (inactive), the GI50 (SW-620) was 2.86 µM (inactive) and the GI50 (T47D) was > 10 µM (inactive). For the same compound, the GI50 (HCT-116) was 2.65 µM (inactive), the GI50 (M14) was 3.12 µM (inactive) and the GI50 (HOP-62) was > 10 µM (inactive). The GI50 (SNB-19) was > 10 µM (inactive), the GI50 (SNB-75) was > 6.04 µM (inactive) and the GI50 (NCI-H226) was > 10 µM (inactive). For the same compound, the GI50 (SN12C) was 7.41 µM (inactive), the GI50 (SF-295) was > 10 µM (inactive) and the GI50 (UACC-62) was > 5.12 µM (inactive). The GI50 (HL-60) was 1.52 µM (inactive), the GI50 (UO-31) was > 10 µM (inactive) and the GI50 (MCF7) was 3.23 µM (inactive). For the same compound, the GI50 (SF-539) was > 10 µM (inactive), the GI50 (A498) was > 10 µM (inactive) and the GI50 (K562) was 1.69 µM (inactive). The GI50 (NCI-H522) was 0.245 µM (active), the GI50 (PC-3) was > 10 µM (inactive) and the GI50 (HOP-92) was > 10 µM (inactive). The GI50 (UACC-257) was > 10 µM (inactive), the GI50 (DU-145) was > 7.13 µM (inactive) and the GI50 (SK-MEL-2) was > 10 µM (inactive). For the same compound, the GI50 (NCI/ADR-RES) was > 10 µM (inactive), the GI50 (EKVX) was > 10 µM (inactive) and the GI50 (RXF 393) was > 9.62 µM (inactive). The GI50 (HCC 2998) was > 8.71 µM (inactive), the GI50 (MDA-MB-231) was > 10 µM (inactive) and the GI50 (CAKI-1) was > 10 µM (inactive). For the same compound, the GI50 (Hs-578T) was > 10 µM (inactive), the GI50 (SK-MEL-28) was > 10 µM (inactive) and the GI50 (SK-MEL-5) was > 4.8 µM (inactive). The GI50 (HT-29) was > 10 µM (inactive), the GI50 (ACHN) was > 10 µM (inactive) and the GI50 (MDA-N) was > 7.13 µM (inactive). The GI50 (OVCAR-5) was > 10 µM (inactive), the GI50 (SK-OV-3) was > 10 µM (inactive) and the GI50 (COLO 205) was > 10 µM (inactive). For the same compound, the GI50 (MOLT-4) was 0.0489 µM (active), the GI50 (MDA-MB-435) was > 7.23 µM (inactive) and the GI50 (SR) was 2.41 µM (inactive). The GI50 (SF-268) was > 10 µM (inactive), the GI50 (786-0) was 4.2 µM (inactive) and the GI50 (BT-549) was > 10 µM (inactive). For the same compound, the GI50 (NCI-H23) was 5.13 µM (inactive).
